According to ChEMBL document CHEMBL1133187, “Novel antiarthritic agents with 1,2-isothiazolidine-1,1-dioxide (gamma-sultam) skeleton: cytokine suppressive dual inhibitors of cyclooxygenase-2 and 5-lipoxygenase” (J Med Chem, 2000):

Columns and labels:
[1] = species: Homo sapiens; assay: Inhibitory effect on production of (COX-1) thromboxane B2 (TXB2) in human platelet cells; assay type: functional, cell-based
[2] = species: Rattus norvegicus; assay: Dose required for 30% inhibition of adjuvant-induced arthritis; assay type: functional
[3] = test system: Rattus norvegicus; assay: Dose required for 30% inhibition of carrageenan-induced edema; assay type: functional
[4] = species: Rattus norvegicus; assay: Inhibitory effect for increase in plasma prostaglandin E2 (PGE2) level after arachidonic acid (AA) injection into COX-1 non-lipopolysaccharide-treated rats; assay type: functional, organism-based
[5] = species: Rattus norvegicus; assay: Inhibitory effect for increase in plasma prostaglandin E2 (PGE2) level after arachidonic acid (AA) injection into COX-2 lipopolysaccharide-treated rats; assay type: functional, organism-based
[6] = species: Rattus norvegicus; assay: Dose required for Ulcerogenic effect; assay type: functional
[7] = test system: Rattus norvegicus; assay: Percent inhibition of adjuvant-induced arthritis at 10 mg/kg po; assay type: functional
[8] = test system: Rattus norvegicus; assay: Percent inhibition of carrageenan-induced foot-pad edema at 30 mg/kg po; assay type: functional
[9] = species: Rattus norvegicus; assay: In vitro effect on production of calcium ionophore (A23187) -induced Leukotriene B4 (LTB4) in rat peritoneal cells; assay type: functional, cell-based
[10] = Inhibitory effect on production of cyclooxygenase-2 (COX-2) prostaglandin E2 (PGE2) in human IL1-beta stimulated synovial cells; assay type: functional
[11] = test system: THP-1; assay: In vitro effect on production of lipopolysaccharide (LPS) -induced IL1-beta in human THP-1 cells; assay type: functional, cell-based
[12] = species: Rattus norvegicus
Description: Lengths of bleeding ulcer of drug-administered group

[13] = target: T1, Cyclooxygenase (Rattus norvegicus, UniProt P35355+Q63921)
T1 sequence (P35355 whole entry): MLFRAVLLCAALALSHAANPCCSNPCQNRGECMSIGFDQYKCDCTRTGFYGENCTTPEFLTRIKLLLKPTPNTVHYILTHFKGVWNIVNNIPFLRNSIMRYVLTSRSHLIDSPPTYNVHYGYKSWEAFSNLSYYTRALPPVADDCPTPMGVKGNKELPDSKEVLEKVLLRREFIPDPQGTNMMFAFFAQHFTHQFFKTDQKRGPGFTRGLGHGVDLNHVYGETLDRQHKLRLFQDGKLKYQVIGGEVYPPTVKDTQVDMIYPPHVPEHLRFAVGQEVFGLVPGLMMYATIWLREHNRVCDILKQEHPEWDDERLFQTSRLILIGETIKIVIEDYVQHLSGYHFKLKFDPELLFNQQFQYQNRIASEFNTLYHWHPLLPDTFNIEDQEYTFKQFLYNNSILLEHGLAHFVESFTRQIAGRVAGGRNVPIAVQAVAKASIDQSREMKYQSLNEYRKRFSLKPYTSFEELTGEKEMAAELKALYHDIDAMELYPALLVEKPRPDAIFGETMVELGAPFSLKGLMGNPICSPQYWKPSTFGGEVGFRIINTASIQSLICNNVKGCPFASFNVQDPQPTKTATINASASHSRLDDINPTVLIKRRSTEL
T1 sequence (Q63921 whole entry): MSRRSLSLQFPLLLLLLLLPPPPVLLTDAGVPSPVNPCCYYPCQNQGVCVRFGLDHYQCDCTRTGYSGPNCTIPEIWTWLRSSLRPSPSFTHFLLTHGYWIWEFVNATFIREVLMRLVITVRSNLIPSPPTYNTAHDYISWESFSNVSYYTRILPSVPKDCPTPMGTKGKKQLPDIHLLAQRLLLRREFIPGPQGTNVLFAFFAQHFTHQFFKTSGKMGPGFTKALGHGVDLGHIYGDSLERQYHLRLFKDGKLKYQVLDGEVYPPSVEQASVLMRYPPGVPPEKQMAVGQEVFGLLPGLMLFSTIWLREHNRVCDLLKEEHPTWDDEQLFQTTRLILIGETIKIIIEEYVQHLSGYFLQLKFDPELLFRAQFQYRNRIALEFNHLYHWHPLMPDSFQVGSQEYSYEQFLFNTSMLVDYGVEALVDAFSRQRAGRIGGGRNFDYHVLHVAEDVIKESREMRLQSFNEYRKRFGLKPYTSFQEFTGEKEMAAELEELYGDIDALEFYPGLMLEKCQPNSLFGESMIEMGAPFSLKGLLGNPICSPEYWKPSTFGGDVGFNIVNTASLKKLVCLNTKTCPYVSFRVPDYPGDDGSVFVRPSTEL
Description: In vitro inhibitory effect on production of prostaglandin E2 (PGE2) in rat synovial cells.

[14] = test system: THP-1; assay: In vitro inhibitory effect on production of, lipopolysaccharide (LPS) -induced IL1-beta in human THP-1 cells; assay type: functional, cell-based
[15] = species: Rattus norvegicus; assay: In vitro inhibitory effect on production of, calcium ionophore (A23187) -induced Leukotriene B4 (LTB4) in rat peritoneal cells; assay type: functional, cell-based
[16] = species: Rattus norvegicus; assay: In vitro inhibitory effect on production of, Prostaglandin E2 (PGE2) in rat synovial cells; assay type: functional
[17] = test system: THP-1; assay: In vitro inhibitory effect on production of lipopolysaccharide (LPS)-induced IL1-beta in human THP-1 cells; assay type: functional, cell-based
[18] = species: Rattus norvegicus; assay: In vitro inhibitory effect on production of calcium ionophore (A23187)-induced Leukotriene B4 (LTB4) in rat peritoneal cells; assay type: functional, cell-based
[19] = species: Rattus norvegicus; assay: In vitro inhibitory effect on production of Prostaglandin E2 (PGE2) in rat synovial cells; assay type: functional
[20] = test system: Rattus norvegicus; assay: Percent inhibition of adjuvant-induced arthritis at 10 mg/kg poP<0.01; assay type: functional; settings: read-out: Inhibition

| SMILES | IC50 [9] | IC50 [11] | IC50 [13] | inhibition in vivo at 30 mg/kg [8] | also measured |
| --- | --- | --- | --- | --- | --- |
| CCN1CC/C(=C\c2ccc(O)c(OC)c2)S1(=O)=O |  |  |  |  | IC50 [14]: > 100000 nM; IC50 [15]: > 100000 nM; IC50 [16]: > 1000 nM |
| CCN1CC/C(=C\c2ccc(O)cc2)S1(=O)=O |  |  |  |  | IC50 [14]: > 100000 nM; IC50 [15]: > 100000 nM; IC50 [16]: > 1000 nM |
| CC(C)(C)c1cc(/C=C2/CCNS2(=O)=O)cc(C(C)(C)C)c1O | 1800 nM | 27000 nM | < 1 nM | 10.8% |  |
| CC(C)(C)c1cc(/C=C2\CCN(c3ccccn3)S2(=O)=O)cc(C(C)(C)C)c1O |  |  | 1000 nM |  |  |
| CN1OCC/C(=C\c2cc(C(C)(C)C)c(O)c(C(C)(C)C)c2)S1(=O)=O |  |  | 200 nM |  |  |
| CCN1CC/C(=C\c2cc(OC)c(O)c(OC)c2)S1(=O)=O |  |  |  |  | IC50 [14]: > 100000 nM; IC50 [15]: 2600 nM; IC50 [16]: > 1000 nM |
| CON1CC/C(=C\c2cc(C(C)(C)C)c(O)c(C(C)(C)C)c2)S1(=O)=O | 3000 nM | > 100000 nM | < 1 nM | 26.5% | ED30 [2]: 2.4 mg/kg; ED30 [3]: 34.7 mg/kg; inhibition in vivo at 10 mg/kg [7]: 35.2% |
| CC(C)(C)c1cc(/C=C2/CCN(c3ccc(Cl)cc3)S2(=O)=O)cc(C(C)(C)C)c1O |  |  | < 1 nM |  |  |
| CCN1CC/C(=C\c2cc(C(C)C)c(O)c(C(C)C)c2)S1(=O)=O |  |  |  |  | IC50 [17]: > 100000 nM; IC50 [18]: > 100000 nM; IC50 [19]: > 1000 nM |
| CC(C)(C)c1cc(/C=C2\CCN(C3CC3)S2(=O)=O)cc(C(C)(C)C)c1O | 3200 nM | 9000 nM | 2.5 nM | 21.4% | ED30 [2]: 1.7 mg/kg; ED30 [3]: 11.9 mg/kg; Dose [6]: 400 mg/kg; inhibition in vivo at 10 mg/kg [7]: 32.9%; Ulcer index [12]: 0.7 mm |
| CON(C)C(=O)N1CC/C(=C\c2cc(C(C)(C)C)c(O)c(C(C)(C)C)c2)S1(=O)=O | 28000 nM | > 100000 nM | 100 nM | 11.2% |  |

The next lines start with results.

| IC50 [9] | IC50 [11] | IC50 [13] | SMILES | inhibition in vivo at 30 mg/kg [8] | also measured |
| --- | --- | --- | --- | --- | --- |
| 2500 nM | 10000 nM | 9.5 nM | CCN1CC/C(=C\c2cc(C(C)(C)C)c(O)c(C(C)(C)C)c2)S1(=O)=O | 49.4% | IC50 [1]: 27000 nM; ED30 [2]: 0.76 mg/kg; ED30 [3]: 3.5 mg/kg; ED50 [4]: > 30 mg/kg; ED50 [5]: 3.19 mg/kg; Dose [6]: 400 mg/kg; inhibition in vivo at 10 mg/kg [7]: 37.8%; IC50 [10]: 11 nM; Ulcer index [12]: 1.6 mm |
|  |  | 320 nM | CC(C)N1CC/C(=C\c2cc(C(C)(C)C)c(O)c(C(C)(C)C)c2)S1(=O)=O |  |  |
|  |  | 3400 nM | CC(C)(C)c1cc(/C=C2\CCN(CC(=O)O)S2(=O)=O)cc(C(C)(C)C)c1O |  |  |
| 2500 nM | 10000 nM | 2.1 nM | CCN1CC/C(=C/c2cc(C(C)(C)C)c(O)c(C(C)(C)C)c2)S1(=O)=O | 7.3% | inhibition in vivo at 10 mg/kg [7]: 11.4% |
| 2800 nM | 28000 nM | 9.1 nM | CN1CC/C(=C\c2cc(C(C)(C)C)c(O)c(C(C)(C)C)c2)S1(=O)=O | 61.4% | ED30 [2]: 0.64 mg/kg; ED30 [3]: 5.4 mg/kg; Dose [6]: 400 mg/kg; inhibition in vivo at 10 mg/kg [20]: 39.4%; Ulcer index [12]: 26.8 mm |
| 9500 nM | 90000 nM | 10 nM | CC(C)(C)c1cc(/C=C2\CCN(O)S2(=O)=O)cc(C(C)(C)C)c1O | 15.8% | inhibition in vivo at 10 mg/kg [7]: 3.6% |
|  |  | 410 nM | CC(C)CN1CC/C(=C\c2cc(C(C)(C)C)c(O)c(C(C)(C)C)c2)S1(=O)=O |  |  |
